# Reference: patent publication US12522564B2, “Polymorphs of elafibranor” (GENFIT, priority 2021, dated 2026)
# Columns and labels:
# [1] = Saturation concentration of elafibranor in the crystallization solvent; format: physicochemical; conditions: room temperature
# [2] = tested on: patients and healthy volunteers; conditions: over 800 patients and healthy volunteers; cited from earlier work
# [3] = tested on: animal disease models; conditions: cited from earlier work
# [4] = up to 2-year carcinogenicity studies; cited from earlier work
smiles,measurement,setting,value
"CSc1ccc(C(=O)/C=C/c2cc(C)c(OC(C)(C)C(=O)O)c(C)c2)cc1 [Elafibranor, 2-(2,6-dimethyl-4-{3-[4-(methylsulfanyl)phenyl]-3-oxopropen-1-yl}phenoxy)-2-methylpropanoic acid]",saturation concentration of elafibranor in the solvent,"[1]; N,N-dimethylacetamide",11.9 mg/mL
same,saturation concentration of elafibranor in the solvent,[1]; ethanol,28.7 mg/mL
same,saturation concentration of elafibranor in the solvent,[1]; methanol,17.7 mg/mL
same,HDL-C levels,[2],increase
same,insulin sensitivity and glucose homeostasis,[2],improvement
same,"markers of liver dysfunction, including ALAT, ASAT, γGT, ALP",[2],improvement
same,plasma triglycerides and LDL-C,[2],decrease
same,"histological NASH parameters (steatosis, inflammation, fibrosis)",[3],efficacy
same,safety in full toxicological package,[4],absence of safety concern
